Results on four substances are retold here after patent publication US20160151461A1, “Cardio-Metabolic and Vascular Effects of GLP-1 Metabolites” (THE TRUSTEES OF THE UNIVERSITY OF PENNSYLVANIA, priority 2013, published 2016).

No end group written: not given here.

For data set [1], the system named is normal, conscious, chronically instrumented dogs. Description: hyperglycemic clamp studies in normal, conscious, chronically instrumented dogs. The class given is in vivo. As for the experimental part: To determine the effect of GLP-1 (32-36) on coronary blood flow, hyperglycemic clamp studies were conducted in normal, conscious, chronically instrumented dogs (n=3), in which plasma glucose was raised to 180 mg/dl by continuous infusion of glucose (FIG. 1). The plasma glucose concentration was monitored continuously as was plasma insulin response. In the control studies, the 5 dogs underwent the 3 hour hyperglycemic clamp. On a separate occasion, the same animals underwent a 3 hour hyperglycemic clamp in which GLP-1 (32-36) was infused beginning in the second hour.
Myocardial glucose uptake is calculated as the product of the difference in the arterial-coronary sinus glucose content and the average coronary blood flow. The increase in myocardial glucose uptake is in excess of that attributable to the increase in coronary blood flow alone.

The test system of a further data set is myocardium; donor organs. Description: myocardial glucose uptake and preconditioning of donor organs against ischemic injury (summary statement).
For data set [2] the following is noted: in vivo; cited from earlier work.
In data set [3] the test system is conscious chronically instrumented dogs with pacing induced heart failure. Description: pacing induced model of dilated cardiomyopathy in conscious chronically instrumented dogs (72 hours of rapid ventricular pacing). The class given is in vivo. Conditions: after 72 hours of rapid ventricular pacing, vs Control. Here is the method: In order to compare the vasoactive effects of different classes of incretins, experiments were designed to study the pacing induced model of dilated cardiomyopathy in conscious chronically instrumented dogs (FIG. 3). These animals were instrumented to examine the effects of equal concentrations of various classes of incretins on coronary blood flow and renal blood flow. All dogs underwent 72 hours of rapid ventricular pacing following which coronary flow responses were measured (Control). Rapid pacing was associated with 30-35% declines in coronary blood flow and renal blood flow respectively. […] This supports the notion that the native peptide and active metabolites have vasoactive as well as glucose-stimulatory properties. The renal vascular effects support the claims for use in heart failure complicated by renal failure (cardio-renal syndrome). The coronary vasodilator properties support the claims for the use in acute coronary syndromes and microvascular angina.

The test system of data set [4] is conscious, chronically instrumented dogs. Description: rapid pacing induced stress (72 hour) in conscious, chronically instrumented dogs, hemodynamic measurements. The class given is in vivo. The conditions noted are these: 72 hours rapid pacing stress, vs sham vehicle. An excerpt:
FIG. 7 illustrates characteristic instrumentation of conscious, chronically instrumented dogs studied in the laboratory. Under sterile surgical technique, the animals are instrumented as indicated and allowed to recover fully from their surgery. LV, aortic, and left atrial catheters were used to measure pressures. LV Konigsberg® transducer was used to measure isovolumic contractility and relaxation as measures of systolic and diastolic function. Ultrasonic dimension crystals were used to measure LV shortening and LV filling rates. Pacing leads were attached to the left atrial appendage. Transonics® flow probes were placed around the left circumflex coronary artery and right renal artery to measure coronary and renal blood flow.
Experiments were performed where 25 conscious, chronically instrumented dogs (FIG. 7) were subjected to a rapid pacing induced stress which recapitulates the hemodynamic perturbations experienced by patients with sudden onset of paroxysmal atrial fibrillation (FIG. 8). Dogs were studied before and daily during the 72 hour pacing stress. […] All measurements were made during intrinsic sinus rhythm 20-30 minutes after cessation of pacing. Hemodynamic measurements included: • LV systolic and diastolic pressures, mean arterial pressures, heart rate • Systolic function: LV contractility (systolic contractile function), LV fractional shortening • Diastolic function: LV isovolumic relaxation time constant, LV filling rate • Flows: systemic, coronary and renal blood flows

Data set [5] relates to patients with advanced heart failure. Conditions: 5 weeks of continuous infusion, NYHA Class IIIB and IV; cited from earlier work.
Data set [6] deals with patients with mild heart failure. The conditions noted are these: infused for 48 hours, NYHA Class II; cited from earlier work.
For another data set, the system named is advanced heart failure. Conditions: cited from earlier work.
Data set [7] has as its system large animal models of advanced heart failure. Conditions: cited from earlier work.
The next data set deals with AMP kinase. Description: isolated isovolumic rat heart, activation of AMP kinase. Conditions: for AMPK activation in presence of EXE (inhibits activation of the GLP-1 receptor): with EXE; for AMPK activation in presence of pertussus toxin (PTX): with PTX (Gi); for AMPK activation in presence of STO609 (CAM kinase): with STO609. The source says:
It is largely unknown how GLP-1 stimulates glucose uptake independent of insulin. A candidate mechanism involves the activation of AMP kinase which causes GLUT translocation and glucose uptake independent of insulin. The isolated isovolumic rat heart was studied as a model in which myocardial specific responses can be observed (FIG. 4).

Consider “Leu-Val-Lys-Gly-Arg (LVKGR-NH2) [GLP-1 (32-36) amide]”, for which the “increase in coronary blood flow” value in data set [1] (3 hour hyperglycemic clamp, plasma glucose 180 mg/dl, peptide infused beginning in the second hour, vs control clamp) was “significantly greater increase”. The “increase in myocardial glucose uptake” value in data set [1] (hyperglycemic clamp, matched hyperinsulinemia, vs control) is on record as “significantly greater increase”. For the same substance, in the data set with myocardium; donor organs, the “preconditioning donor organs against ischemic injury” value is given as “active” and the “stimulating glucose uptake into myocardium in a non-insulin dependent fashion” value was “active”.

For Glucagon-like peptide-1 [GLP-1], in data set [2], the active half-life time was 1 to 2 min and the “half-life time in blood” value is ≤ 5 min.

For “His-Ala-Glu-Gly-Thr-Phe-Thr-Ser-Asp-Val-Ser-Ser-Tyr-Leu-Glu-Gly-Gln-Ala-Ala-Lys-Glu-Phe-Ile-Ala-Trp-Leu-Val-Lys-Gly-Arg [GLP-1 (7-36) amide]”, in data set [3], the coronary blood flow entry is “preserved coronary and renal blood flow to a greater extent than seen in control”; the renal blood flow result is “preserved coronary and renal blood flow to a greater extent than seen in control”. Further, in [4], the “LV systolic and diastolic function” value is reported as “mitigated the declines”; the coronary blood flow result was “preserved”; the renal blood flow entry was “preserved”; the systemic vascular resistance entry was “mitigated the declines in LV systolic and diastolic function and the rise”. Also, the functional outcomes in [5] is “improved functional outcomes”. Further, the benefit result in data set [6] is given as “no benefit”. For the same substance, in the data set on advanced heart failure, the “elevated levels of plasma glucagon” value is reported as “suppresses” and the insulin action entry is reported as “augments”. In data set [7] (in vivo, iv), the “expression of mitochondrial uncoupling protein 3 (UCP-3) and mitochondrial cytochrome oxidase (Complex IV)” value is given as “increased”. Besides, in [7] (in vivo), the “mitochondrial reactive oxygen species (ROS) generation” value is “decreased”. The “cell survival pathways (ras dependent activation of p38 MAP kinase, induction of NOS2)” value in data set [7] (independent of insulin signaling pathways) is on record as “activates”.

In the case of “Glu-Gly-Thr-Phe-Thr-Ser-Asp-Val-Ser-Ser-Tyr-Leu-Glu-Gly-Gln-Ala-Ala-Lys-Glu-Phe-Ile-Ala-Trp-Leu-Val-Lys-Gly-Arg (EGTFTSDVSSYLEGQAAKEFIAWLVKGR-NH2) [GLP-1 (9-36) amide]”, in data set [3], the coronary blood flow result was “preserved coronary and renal blood flow to a greater extent than seen in control”; the renal blood flow entry was “preserved coronary and renal blood flow to a greater extent than seen in control”. Moreover, the “phosphorylation and activation of AMP kinase” value in the data set with AMP kinase (60 minutes of perfusion) was “increased the phosphorylation and the activation of AMP kinase”. Further, in the data set on AMP kinase, the “AMPK activation in presence of EXE (inhibits activation of the GLP-1 receptor)” value was “GLP-1 receptor independent”; the “AMPK activation in presence of pertussus toxin (PTX)” value is “pertussus toxin (Gi) and Ca-Calmodulin dependent”; the “AMPK activation in presence of STO609 (CAM kinase)” value was “pertussus toxin (Gi) and Ca-Calmodulin dependent”. In the data set with AMP kinase (listed as GLP-1 (9-36)), the “AMPK activation in presence of EXE (inhibits activation of the GLP-1 receptor)” value is “not blocked”, the “AMPK activation in presence of pertussus toxin (PTX)” value was “blocked by pertussus toxin” and the “AMPK activation in presence of STO609 (CAM kinase)” value is listed as “blocked by STO609”. For the same substance, in the data set with AMP kinase (with NEPI), the “AMPK activation under neuroendopeptidase inhibition (NEPI)” value was “abolished”. Moreover, in data set [4], the “LV systolic and diastolic function” value was “mitigated the declines”; the coronary blood flow result is reported as “preserved”; the renal blood flow result is reported as “preserved”; the systemic vascular resistance result is “mitigated the declines in LV systolic and diastolic function and the rise”. Also, in the data set on myocardium; donor organs, the “preconditioning donor organs against ischemic injury” value is “active” and the “stimulating glucose uptake into myocardium in a non-insulin dependent fashion” value was “active”.
